{
  "source": "paper PMC6160541",
  "about": "(Frontiers in Chemistry, 2018)",
  "key": {"HeLa": {"test_system": "HeLa", "assay": "MTT cytotoxicity assay, HeLa", "format": "cell-based, human", "settings": "48 h", "description": "(§1) We evaluated the cytotoxicity of 1c-6c, 1d-7d and of the positive control 1a-5a against a panel of human cancer cells using MTT (3-(4,5-dimethylthiazol-2-yl)-2,5-diphenyltetrazolium bromide) assay. The IC50 values were calculated based on three parallel experiments.\n(§2) Cisplatin and oxaliplatin were purchased from Yurui Chemical Co. Ltd. (Shanghai, China). All of the other chemicals were obtained from commercial suppliers, such as Alfa […]\n(§3) IonSpec QFT mass spectrometer with ESI ionization. 3-(4,5-dimethylthiazol-2-yl) […]\n(§4) Phosphate-buffered saline (PBS) contains 137 mM\n(§5) NaCl, 2.7 mM KCl, 10 mM Na2HPO4 and 2 mM KH2PO4. Fetal bovine serum (FBS), 0.25% trypsin/EDTA solution, and penicillin-streptomycin solution were purchased from […]\n(§6) Invitrogen (Grand Island, NY, USA). […]\n(§7) HeLa (cervical carcinoma cell line), MCF-7 (breast gland adenocarcinoma), LNCaP and PC3 (prostatic cancer), HepG-2 (hepatocellular carcinoma), A549 and A549R (lung carcinoma) were used for the MTT […]\n(§8) In Vitro Cellular Cytotoxicity Assays\n(§9) Cells seeded in 96-well plates were incubated in a 5% CO2 atmosphere in 100 µL of complete medium at 37 ℃ for 24 h. Then, 100 µL of freshly prepared culture medium containing drugs at different concentrations was added and incubated for another 48 h.\n(§10) MTT (5 mg/mL, 20 µL) was added and incubated for 3 h. Finally, the medium was removed, and DMSO (150 µL) was added. The absorbance was measured at 570 nm using a Bio-Rad 680 microplate reader. The IC50 values were calculated using GraphPad […]\n(§11) Prism software. […]"}, "A549R": {"test_system": "A549R", "assay": "MTT cytotoxicity assay, A549R (cisplatin-resistant)", "format": "cell-based, human", "description": "as §1, §2, §3, §4, §5, §6, §7, §8, §9, §10, §11"}, "LNCaP": {"test_system": "LNCaP", "assay": "MTT cytotoxicity assay, LNCaP", "format": "cell-based, human", "settings": "48 h", "description": "as §1, §2, §3, §4, §5, §6, §7, §8, §9, §10, §11"}, "A549": {"test_system": "A549", "assay": "MTT cytotoxicity assay, A549", "format": "cell-based, human", "settings": "48 h", "description": "as §1, §2, §3, §4, §5, §6, §7, §8, §9, §10, §11"}, "[1]": {"parameters": "method as in printed", "settings": "comparison values, ref not given; cited from earlier work"}, "PC3": {"test_system": "PC3", "assay": "MTT cytotoxicity assay, PC3", "format": "cell-based, human", "settings": "48 h", "description": "as §1, §2, §3, §4, §5, §6, §7, §8, §9, §10, §11"}, "MCF-7": {"test_system": "MCF-7", "assay": "MTT cytotoxicity assay, MCF-7", "format": "cell-based, human", "settings": "48 h", "description": "as §1, §2, §3, §4, §5, §6, §7, §8, §9, §10, §11"}, "HepG-2": {"test_system": "HepG-2", "assay": "MTT cytotoxicity assay, HepG-2", "format": "cell-based, human", "settings": "48 h", "description": "as §1, §2, §3, §4, §5, §6, §7, §8, §9, §10, §11"}, "MDCK cells": {"test_system": "MDCK cells", "assay": "MTT cytotoxicity with EDG, phloretin, Ctd. in MDCK cells", "format": "cell-based, canine", "settings": "vs IC50 at 48 h", "source_text": "Finally, Madin-Darby canine kidney (MDCK) cells, which are widely used to establish the model of the intestinal epithelium and to evaluate the oral administration and screening of substrates and inhibitors in vitro, were used to find a prodrug with the enhanced potential for oral administration. […] (Figure 10)."}},
  "data": [
    {"smiles": "CC(=O)[O][Pt]([NH2])([Cl])([Cl])([NH]C1CCCCC1)[O]C(C)=O", "note": "[5a, satraplatin, reference compound]", "values": [
      {"measurement": "IC50", "setting": "HeLa", "result": "3.1 ± 0.89", "unit": "µM"},
      {"measurement": "RF: Resistance factor = IC50(A549R)/IC50(A549)", "setting": "A549R", "result": 4.59},
      {"measurement": "IC50", "setting": "A549R; MTT, 48 h", "result": "9.96 ± 0.57", "unit": "µM"},
      {"measurement": "IC50", "setting": "LNCaP", "result": "5.23 ± 1.77", "unit": "µM"},
      {"measurement": "IC50", "setting": "A549", "result": "2.17 ± 1.68", "unit": "µM"},
      {"measurement": "t1/2 in whole human blood", "setting": "[1]", "result": 6.3, "unit": "min"},
      {"measurement": "IC50", "setting": "PC3", "result": "16.8 ± 1.56", "unit": "µM"},
      {"measurement": "IC50", "setting": "MCF-7", "result": "8.01 ± 0.56", "unit": "µM"},
      {"measurement": "IC50", "setting": "HepG-2", "result": "6.7 ± 1.89", "unit": "µM"},
      {"measurement": "effect of EDG, phloretin, Ctd. and EDG + Ctd. on IC50", "setting": "MDCK cells", "result": "no great differences"}
    ]}
  ]
}
